Results from patent US20240108702A1, “Use Of Naturally Occurring Cyclic Peptides For Treatment Of SARS-COV-2 Infection” (The University of Southern California, priority 2021, published 2024).
Like-named read-outs stand apart in the source and are kept apart here. Where a SMILES comes first, the peptide text is derived from it. Bridges are numbered along the chain shown (N, C = ends).

Conditions: for LOAEL: i.v.
[1] = female rats, 5 mg/kg/day, Day 8, median
[2] = female rats, 10 mg/kg/day, Day 8, median
[3] = female rats, 20 mg/kg, Day 2, median
[4] = male rats, 5 mg/kg/day, Day 8, median
[5] = male rats, 10 mg/kg/day, Day 8, median
[6] = male rats, 20 mg/kg, Day 2, median

## CC[C@H](C)[C@@H]1NC(=O)[C@@H]2CSSC[C@H](NC(=O)[C@H](CCCNC(=N)N)NC(=O)[C@@H]3CSSC[C@H](NC1=O)C(=O)N[C@@H]([C@@H](C)O)C(=O)N[C@@H](CCCNC(=N)N)C(=O)NCC(=O)N[C@@H](Cc1ccccc1)C(=O)N3)C(=O)N[C@@H](CC(C)C)C(=O)N[C@H]1CSSC[C@H](NC(=O)[C@H](C(C)C)NC(=O)CNC(=O)[C@H](CCCNC(=N)N)NC(=O)[C@H](CCCNC(=N)N)NC1=O)C(=O)N[C@@H](CCCNC(=N)N)C(=O)N2 [Peptide 1] (cyclo(GFCRCLCRRGVCRCICTR); disulfide 3-16, 5-14, 7-12)
Sprague-Dawley rats, study duration 7 days (Table 8)
  LOAEL: 20 mg/kg/day
Female rats, 5 mg/kg dose group, found dead Day 15
  mortality (determined unrelated to treatment): 1 out of 16
[1]
  A/G: 2.10
  ALP: 92.0 U/L
  ALT: 35.0 U/L
  APTT: 10.6 s
  AST: 139.0 U/L
  Albumin: 3.9 g/dL
  Basophils: 0.3%
  Basophils absolute: 0.02 10^3/mm^3
  CK: 792 U/L
  Calcium: 9.80 mg/dL
  Chloride: 105.0 mmol/L
  Cholesterol: 55.0 mg/dL
  Creatinine: 0.3 mg/dL
  Eosinophils: 3.6%
  Eosinophils absolute: 0.30 10^3/mm^3
  Fibrinogen: 223 mg/dL
  GGT: 0.0 U/L
  Globulin: 1.8 g/dL
  Glucose: 97 mg/dL
  HDW: 2.37 g/dL
  Hct: 40.5%
  Hemoglobin: 13.5 g/dL
  K: 4.9 mmol/L
  LUC: 0.3%
  LUC absolute: 0.02 10^3/mm^3
  Lymphocyte absolute: 4.78 10^3/mm^3
  Lymphocytes: 68.1%
  MCH: 19.1 pg
  MCHC: 33.4 g/dL
  MCV: 57.9 fL
  Monocyte absolute: 0.17 10^3/mm^3
  Monocytes: 2.6%
  Na: 143 mmol/L
  Neutrophil absolute: 1.33 10^3/mm^3
  Neutrophils: 26.7%
  PT: 16.3 s
  Phos: 7.3 mg/dL
  Platelets: 801 10^3/mm^3
  RBC: 6.88 10^6/mm^3
  RDW: 12.7%
  Reticulocytes: 3.9%
  Reticulocytes absolute: 256.7 10^3/mm^3
  T-Bil: 0.00 mg/dL
  TP: 5.8 g/dL
  Triglycerides: 25 mg/dL
  Urea N: 20 mg/dL
  WBC: 6.50 10^3/mm^3
[2]
  A/G: 2.15
  ALP: 109.5 U/L
  ALT: 32.5 U/L
  APTT: 10.9 s
  AST: 122.0 U/L
  Albumin: 3.9 g/dL
  Basophils: 0.4%
  Basophils absolute: 0.04 10^3/mm^3
  CK: 474 U/L
  Calcium: 9.95 mg/dL
  Chloride: 105.0 mmol/L
  Cholesterol: 55.0 mg/dL
  Creatinine: 0.3 mg/dL
  Eosinophils: 3.3%
  Eosinophils absolute: 0.33 10^3/mm^3
  Fibrinogen: 283 mg/dL
  GGT: 0.0 U/L
  Globulin: 1.8 g/dL
  Glucose: 99 mg/dL
  HDW: 2.45 g/dL
  Hct: 41.2%
  Hemoglobin: 13.7 g/dL
  K: 5.05 mmol/L
  LUC: 0.35%
  LUC absolute: 0.04 10^3/mm^3
  Lymphocyte absolute: 7.13 10^3/mm^3
  Lymphocytes: 72.0%
  MCH: 19.0 pg
  MCHC: 33.3 g/dL
  MCV: 57.3 fL
  Monocyte absolute: 0.39 10^3/mm^3
  Monocytes: 3.5%
  Na: 142.5 mmol/L
  Neutrophil absolute: 2.18 10^3/mm^3
  Neutrophils: 19.9%
  PT: 17.1 s
  Phos: 7.05 mg/dL
  Platelets: 939 10^3/mm^3
  RBC: 7.21 10^6/mm^3
  RDW: 13.0%
  Reticulocytes: 4.1%
  Reticulocytes absolute: 277.3 10^3/mm^3
  T-Bil: 0.00 mg/dL
  TP: 5.7 g/dL
  Triglycerides: 26 mg/dL
  Urea N: 21 mg/dL
  WBC: 10.75 10^3/mm^3
[3]
  A/G: 3.00
  ALP: 142.0 U/L
  ALT: 62.0 U/L
  APTT: 29.2 s
  AST: 397.0 U/L
  Albumin: 3.0 g/dL
  Basophils: 0.5%
  Basophils absolute: 0.06 10^3/mm^3
  CK: 1,506 U/L
  Calcium: 10.30 mg/dL
  Chloride: 104.0 mmol/L
  Cholesterol: 52.0 mg/dL
  Creatinine: 0.5 mg/dL
  Eosinophils: 1.5%
  Eosinophils absolute: 0.13 10^3/mm^3
  Fibrinogen: 83 mg/dL
  GGT: 4.0 U/L
  Globulin: 1.0 g/dL
  Glucose: 218 mg/dL
  HDW: 2.37 g/dL
  Hct: 46.9%
  Hemoglobin: 15.2 g/dL
  K: 4.9 mmol/L
  LUC: 0.5%
  LUC absolute: 0.05 10^3/mm^3
  Lymphocyte absolute: 5.56 10^3/mm^3
  Lymphocytes: 60.5%
  MCH: 19.6 pg
  MCHC: 32.3 g/dL
  MCV: 61.0 fL
  Monocyte absolute: 0.33 10^3/mm^3
  Monocytes: 3.8%
  Na: 141 mmol/L
  Neutrophil absolute: 2.55 10^3/mm^3
  Neutrophils: 33.6%
  PT: 23.5 s
  Phos: 9.3 mg/dL
  Platelets: 604 10^3/mm^3
  RBC: 7.63 10^6/mm^3
  RDW: 12.2%
  Reticulocytes: 5.3%
  Reticulocytes absolute: 326.0 10^3/mm^3
  T-Bil: 0.00 mg/dL
  TP: 3.90 g/dL
  Triglycerides: 106 mg/dL
  Urea N: 20 mg/dL
  WBC: 8.15 10^3/mm^3
Female rats, 5 and 10 mg/kg/day, end of treatment, non-adverse, recoverable
  microscopic findings, liver: minimal to mild liver necrosis
Male and female rats, 20 mg/kg
  microscopic findings, adrenal: Mild to severe adrenal necrosis
Male and female rats, 20 mg/kg dosing group
  body weight: significant decreases in body weights
[4]
  A/G: 2.2
  ALP: 212.0 U/L
  ALT: 40.0 U/L
  APTT: 14.8 s
  AST: 133.0 U/L
  Albumin: 3.8 g/dL
  Basophils: 0.3%
  Basophils absolute: 0.03 10^3/mm^3
  CK: 766 U/L
  Calcium: 9.75 mg/dL
  Chloride: 104.5 mmol/L
  Cholesterol: 70.5 mg/dL
  Creatinine: 0.2 mg/dL
  Eosinophils: 3.9%
  Eosinophils absolute: 0.37 10^3/mm^3
  Fibrinogen: 263 mg/dL
  GGT: 0.0 U/L
  Globulin: 1.7 g/dL
  Glucose: 73 mg/dL
  HDW: 2.30 g/dL
  Hct: 43.8%
  Hemoglobin: 14.1 g/dL
  K: 5.15 mmol/L
  LUC: 0.3%
  LUC absolute: 0.03 10^3/mm^3
  Lymphocyte absolute: 6.03 10^3/mm^3
  Lymphocytes: 71.8%
  MCH: 20.0 pg
  MCHC: 32.1 g/dL
  MCV: 61.8 fL
  Monocyte absolute: 0.22 10^3/mm^3
  Monocytes: 2.9%
  Na: 144 mmol/L
  Neutrophil absolute: 2.04 10^3/mm^3
  Neutrophils: 20.2%
  PT: 16.0 s
  Phos: 8.45 mg/dL
  Platelets: 1,052 10^3/mm^3
  RBC: 7.06 10^6/mm^3
  RDW: 14.0%
  Reticulocytes: 5.2%
  Reticulocytes absolute: 359.7 10^3/mm^3
  T-Bil: 0.00 mg/dL
  TP: 5.5 g/dL
  Triglycerides: 37 mg/dL
  Urea N: 16.5 mg/dL
  WBC: 8.40 10^3/mm^3
[5]
  A/G: 2.35
  ALP: 212.5 U/L
  ALT: 32.5 U/L
  APTT: 14.6 s
  AST: 113.5 U/L
  Albumin: 3.7 g/dL
  Basophils: 0.3%
  Basophils absolute: 0.03 10^3/mm^3
  CK: 613 U/L
  Calcium: 9.70 mg/dL
  Chloride: 105.0 mmol/L
  Cholesterol: 66.0 mg/dL
  Creatinine: 0.3 mg/dL
  Eosinophils: 3.0%
  Eosinophils absolute: 0.31 10^3/mm^3
  Fibrinogen: 261 mg/dL
  GGT: 0.0 U/L
  Globulin: 1.6 g/dL
  Glucose: 83 mg/dL
  HDW: 2.20 g/dL
  Hct: 43.7%
  Hemoglobin: 14.2 g/dL
  K: 5.1 mmol/L
  LUC: 0.3%
  LUC absolute: 0.03 10^3/mm^3
  Lymphocyte absolute: 6.69 10^3/mm^3
  Lymphocytes: 70.9%
  MCH: 20.2 pg
  MCHC: 32.4 g/dL
  MCV: 62.6 fL
  Monocyte absolute: 0.28 10^3/mm^3
  Monocytes: 2.7%
  Na: 144 mmol/L
  Neutrophil absolute: 1.85 10^3/mm^3
  Neutrophils: 22.6%
  PT: 17.5 s
  Phos: 8.6 mg/dL
  Platelets: 1,086 10^3/mm^3
  RBC: 7.06 10^6/mm^3
  RDW: 13.1%
  Reticulocytes: 4.6%
  Reticulocytes absolute: 314.2 10^3/mm^3
  T-Bil: 0.00 mg/dL
  TP: 5.35 g/dL
  Triglycerides: 29 mg/dL
  Urea N: 19.0 mg/dL
  WBC: 10.05 10^3/mm^3
[6]
  A/G: 2.70
  ALP: 232.0 U/L
  ALT: 74.0 U/L
  APTT: 18.5 s
  AST: 245.0 U/L
  Albumin: 2.7 g/dL
  Basophils: 0.2%
  Basophils absolute: 0.03 10^3/mm^3
  CK: 707 U/L
  Calcium: 9.40 mg/dL
  Chloride: 101.0 mmol/L
  Cholesterol: 67.0 mg/dL
  Creatinine: 0.4 mg/dL
  Eosinophils: 1.1%
  Eosinophils absolute: 0.15 10^3/mm^3
  Fibrinogen: 98 mg/dL
  GGT: 0.0 U/L
  Globulin: 1.0 g/dL
  Glucose: 175 mg/dL
  HDW: 2.44 g/dL
  Hct: 37.3%
  Hemoglobin: 12.1 g/dL
  K: 5.1 mmol/L
  LUC: 0.5%
  LUC absolute: 0.07 10^3/mm^3
  Lymphocyte absolute: 4.24 10^3/mm^3
  Lymphocytes: 30.9%
  MCH: 20.0 pg
  MCHC: 31.8 g/dL
  MCV: 62.5 fL
  Monocyte absolute: 0.93 10^3/mm^3
  Monocytes: 8.1%
  Na: 140 mmol/L
  Neutrophil absolute: 8.40 10^3/mm^3
  Neutrophils: 61.1%
  PT: 21.3 s
  Phos: 9.3 mg/dL
  Platelets: 728 10^3/mm^3
  RBC: 6.04 10^6/mm^3
  RDW: 14.3%
  Reticulocytes: 6.4%
  Reticulocytes absolute: 373.3 10^3/mm^3
  T-Bil: 0.10 mg/dL
  TP: 3.7 g/dL
  Triglycerides: 193 mg/dL
  Urea N: 28 mg/dL
  WBC: 13.70 10^3/mm^3
Male rats, 20 mg/kg, adverse
  microscopic findings, liver: minimal to moderate liver necrosis
rats
  LOAEL: 20 mg/kg
rats, once daily i.v. infusion 5 and 10 mg/kg/day, temporary, resolved in recovery
  clinical signs: non-adverse, treatment-related clinical signs
rats, single i.v. 20 mg/kg, Day 1
  acute, treatment-related mortality: 5 out of 12
